Values quoted from earlier work as cited in patent publication US20080113949A1, “Use of dipyridamole in combination with acetylsalicylic acid and an angiotensin II antagonist for stroke prevention” (priority 2003, published 2008).

Conditions: clinical study ESPS-2; compared with aspirin

## OCCN(CCO)c1nc(N2CCCCC2)c2nc(N(CCO)CCO)nc(N3CCCCC3)c2n1 [dipyridamole, 2,6-bis(diethanolamino)-4,8-dipiperidino-pyrimido[5,4-d]pyrimidine]
  reduction of stroke risk: as effective as low-dose aspirin
